This is an account of results in ChEMBL document CHEMBL1201862, “PubChem BioAssay data set” (2004).

What all share (experiment): NCI tumour cell line growth inhibition, 48 h
The test system of test [1] is SK-MEL-28.
Test [2] has as its system T47D.
Test [3] deals with U-251.
The subject of test [4] is DU-145.
Test [5] deals with CAKI-1.
The test system of test [6] is HL-60.
The subject of test [7] is MDA-N.
Test [8] relates to K562.
Test [9] relates to CCRF-CEM.
Test [10] concerns RPMI-8226.
For test [11], the system named is LOX IMVI.
Test [12] concerns UACC-257.
For test [13], the system named is TK-10.
Test [14] has as its system COLO 205.
In test [15] the test system is HCT-15.
For test [16], the system named is SK-MEL-2.
Test [17] concerns HOP-62.
The test system of test [18] is NCI/ADR-RES.
For test [19], the system named is Malme-3M.

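Growth conditions: 96-well plates. Treatment: test compound, 48 hours, 5 concentrations. Analysis: linear interpolation between bracketing concentrations; unreached endpoints set to highest concentration. Here, GI50 denotes the concentration required for 50% inhibition of growth.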 Calls of active or inactive are those of the source. Cut-off read from the data, not from the text of the source: active = GI50 up to about 1.1 µM and inactive = higher.

Regarding `O=C(/C=C/c1ccc(OCc2cccc(Cl)c2)cc1)NO`, the GI50 is 26.2 µM (inactive) in test [1]; 7.52 µM (inactive) in [2]; 15 µM (inactive) in [3]; 15.3 µM (inactive) in test [4]; 13.5 µM (inactive) in test [5]; 11.1 µM (inactive) in test [6]. For the same compound, the GI50 was 18.6 µM (inactive) in test [7]; 16.6 µM (inactive) in test [8]; 2.65 µM (inactive) in [9]; 7.48 µM (inactive) in [10]; 6.28 µM (inactive) in test [11]; 38 µM (inactive) in test [12]. In addition, the GI50 in test [13] was 20.9 µM (inactive); in test [14] it was 14 µM (inactive); in test [15], 5.05 µM; in [16], 18 µM (inactive); in test [17], 18.2 µM (inactive); in test [18], 5.78 µM (inactive).

As to `CCCn1c(=O)c(N2CCN(c3ccccc3)CC2)nc2sc3ccccc3c21`, the GI50 was > 100 µM (inactive) in [1]; > 100 µM (inactive) in test [2]; > 100 µM (inactive) in test [3]; > 100 µM (inactive) in [4]; > 100 µM (inactive) in test [5]; 49.7 µM (inactive) in [6]. Besides, the GI50 in test [7], in test [9], in test [19], in test [11], in test [12] and in [13] was > 100 µM (inactive) each time. The GI50 is > 100 µM (inactive) in test [14]; greater than 100 µM in test [15]; > 100 µM (inactive) in test [16]; > 100 µM (inactive) in [17]; > 100 µM (inactive) in test [18].

Take `Cc1ccc([C@@H]2[C@@H](C(=O)c3ccccn3)[C@H](c3ccc(C)cc3)C[C@](O)(c3ccccn3)[C@H]2C(=O)c2ccccn2)cc1`: the GI50 was 6.11 µM (inactive) in test [1]; 7.73 µM (inactive) in test [2]; 2.77 µM (inactive) in [3]; 2.17 µM (inactive) in test [4]; 3.95 µM (inactive) in [5]; 2.52 µM (inactive) in test [6]. For the same compound, the GI50 is 3.69 µM (inactive) in test [7]; 0.851 µM (active) in test [9]; 8.79 µM (inactive) in test [19]; 2.84 µM (inactive) in [11]; 8.04 µM (inactive) in [12]; 6.05 µM (inactive) in [13]. For the same compound, the GI50 in test [14] is 5.24 µM (inactive); in test [15] it was 1.77 µM; in test [16] it was 3.46 µM (inactive); in test [17], 5.73 µM (inactive); in [18], 2.86 µM (inactive).

In the case of `C#CCOC(=O)c1ccccc1OC(C)=O`, the GI50 in [2], in test [3], in test [4], in [5], in test [6] and in [7] was > 100 µM (inactive) each time. The GI50 in test [8], in test [9], in [10], in test [11], in test [12] and in test [13] was > 100 µM (inactive) throughout. The GI50 in test [14] is > 100 µM (inactive); in test [15], greater than 100 µM; in test [16], > 100 µM (inactive); in [17], > 100 µM (inactive); in test [18] it was > 100 µM (inactive).

As to `O=[N+]([O-])c1cc(C(F)(F)F)ccc1S(=O)(=O)N[C@@H]1CCCC[C@H]1NS(=O)(=O)c1ccc(C(F)(F)F)cc1[N+](=O)[O-]`, the GI50 in test [1] was 5.55 µM (inactive); in test [2], 3.13 µM (inactive); in [3] it was 3.37 µM (inactive); in test [4] it was 4.22 µM (inactive); in test [5] it was 2.65 µM (inactive); in [6], 1.39 µM (inactive). Moreover, the GI50 in [7] is 3.63 µM (inactive); in [9], 2.72 µM (inactive); in test [19], 2.49 µM (inactive); in test [11], 1.56 µM (inactive); in test [12], 8.07 µM (inactive); in test [13] it was 11 µM (inactive). In addition, the GI50 in test [14] is 2.78 µM (inactive); in test [15], 2.69 µM; in test [16] it was 2.82 µM (inactive); in test [17] it was 7.1 µM (inactive); in test [18] it was 2.51 µM (inactive).

On to `CC1(C)[C@@H]2CC[C@]1(C)[C@H](OC(=O)/C=C/c1ccccc1)C2`, for which the GI50 in test [1] is 19 µM (inactive); in test [2] it was 15.9 µM (inactive); in test [3], 17.7 µM (inactive); in test [4] it was 19.4 µM (inactive); in [5] it was 20.2 µM (inactive); in test [6], 18.4 µM (inactive). The GI50 in test [7] was 31.3 µM (inactive); in [8] it was 19.9 µM (inactive); in test [9] it was 20.4 µM (inactive); in [19] it was 17.3 µM (inactive); in test [11], 21.3 µM (inactive); in [12], 23.8 µM (inactive). Besides, the GI50 in [13] was 36.9 µM (inactive); in test [14], 17.1 µM (inactive); in test [15] it was 17.6 µM; in test [16], 17.4 µM (inactive); in test [17], 30.2 µM (inactive); in test [18] it was 18.9 µM (inactive).

For `C[Si](C)(C)C#Cc1cc(-c2nc3ccccc3s2)ccc1N`, the GI50 in [2] was 18.7 µM (inactive); in test [3] it was 19.2 µM (inactive); in [4] it was 26.6 µM (inactive); in test [5], 14.2 µM (inactive); in [6], 23.3 µM (inactive); in test [7] it was 17.8 µM (inactive). The GI50 was 27.8 µM (inactive) in test [8]; 21.7 µM (inactive) in test [9]; 3.35 µM (inactive) in test [19]; 21.8 µM (inactive) in test [10]; 17.8 µM (inactive) in test [11]; 19.5 µM (inactive) in test [12]. The GI50 is 11.7 µM (inactive) in [13]; 15.5 µM (inactive) in test [14]; 16.9 µM in test [15]; 16.2 µM (inactive) in test [17]; 17.5 µM (inactive) in test [18].

For `COc1ccc(N[C@H]([C@@H](c2ccccc2)[S+]([O-])c2ccc(C)cc2)C(F)(F)F)cc1` (stereo partly drawn), the GI50 in [1] was > 100 µM (inactive); in test [2], > 100 µM (inactive); in [3], 17.9 µM (inactive); in test [4] it was 62.8 µM (inactive); in [5], 46.7 µM (inactive); in [6], 19.1 µM (inactive). In addition, the GI50 was 74.8 µM (inactive) in [7]; 28.4 µM (inactive) in [8]; 21.8 µM (inactive) in test [9]; 75.2 µM (inactive) in test [19]; 53.1 µM (inactive) in test [11]; > 100 µM (inactive) in test [12]. In addition, the GI50 in test [13] is 74.1 µM (inactive); in test [14], 37.2 µM (inactive); in test [15], 30 µM; in test [16] it was 40 µM (inactive); in [18], 87.3 µM (inactive).
